Target: 5-hydroxytryptamine receptor 2A (Homo sapiens, UniProt P28223)
Assay: Radioligand Binding Assay Protocol
Protocol: Competition binding experiments consisted of addition of 5 μL of serially diluted test compound, 50 μL of radioligand stock diluted in Assay Buffer (20 mM HEPES, pH 7.4, 10 mM MgCl2), and 145 μL of diluted membrane expressing the receptor of interest to 96-well microtiter plates, which were then incubated for one hour at room temperature. Assay incubations were terminated by rapid filtration through Perkin Elmer GF/C filtration plates under vacuum pressure using a 96-well Packard filtration apparatus, followed by washing the filter plates several times with ice cold Assay Buffer. Plates were then dried at 45° C. for a minimum of four hours. Finally, 25 μL of BetaScint scintillation cocktail was added to each well and the plates were counted in a Packard TopCount scintillation counter. In each competition study, test compounds were assayed at 10 concentrations with three replicates at each test concentration.

Sequence of 5-hydroxytryptamine receptor 2A (P28223 whole entry): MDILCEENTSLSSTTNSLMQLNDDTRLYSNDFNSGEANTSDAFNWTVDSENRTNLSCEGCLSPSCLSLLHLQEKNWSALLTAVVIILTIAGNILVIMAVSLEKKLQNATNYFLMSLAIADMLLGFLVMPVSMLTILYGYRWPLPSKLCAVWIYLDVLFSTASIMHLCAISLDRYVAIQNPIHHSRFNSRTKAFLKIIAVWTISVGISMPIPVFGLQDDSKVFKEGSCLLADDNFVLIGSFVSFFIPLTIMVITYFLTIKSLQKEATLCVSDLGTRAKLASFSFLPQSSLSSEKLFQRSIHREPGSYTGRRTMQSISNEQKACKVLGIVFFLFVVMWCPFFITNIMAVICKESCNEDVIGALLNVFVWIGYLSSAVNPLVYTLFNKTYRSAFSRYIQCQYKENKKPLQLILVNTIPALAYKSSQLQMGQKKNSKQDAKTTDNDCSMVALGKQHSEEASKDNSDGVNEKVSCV

`CC/C(=C(/C)ON)c1cc(NC(=O)C[C@H]2CCOC2)ccc1OC[C@H]1CCCCN1` [US20240376090, Compound 202] gave a Ki of 9.81 nM.

Source: BindingDB's records for patent US20240376090 (Arena Pharmaceuticals, 2024)
